This note sets out measurements from patent US9745285B2, “Heteroaryl substituted pyrazoles” (BAYER PHARMA AKTIENGESELLSCHAFT, priority 2013, dated 2017).

Where only a bound is given, the exact number is not on record here.

Assay [1] addresses T1, catalytic domain of human Bub1 (amino acids 704-1085) (Homo sapiens, UniProt O43683).
T1 construct: catalytic domain of human Bub1 (amino acids 704-1085); His6 (N); made in house; host or cells: Hi5 insect cells
The assay is described as follows: Bub1 kinase assay (TR-FRET). Particulars: 10 μM ATP, 1 μM peptide substrate, median value, read-out: Biological Assay 1: Bub1 kinase assay median IC50. In kind it is biochemical. The text has this: Bub1-inhibitory activities of compounds described in the present invention were quantified using a time-resolved fluorescence energy transfer (TR-FRET) kinase assay which measures phosphorylation of the synthetic peptide Biotin-Ahx-VLLPKKSFAEPG (C-terminus in amide form), purchased from e.g. Biosyntan (Berlin, Germany) by the (recombinant) catalytic domain of human Bub1 (amino acids 704-1085), expressed in Hi5 insect cells with an N-terminal His6-tag and purified by affinity—(Ni-NTA) and size exclusion chromatography.
In a typical assay 11 different concentrations of each compound (0.1 nM, 0.33 nM, 1.1 nM, 3.8 nM, 13 nM, 44 nM, 0.15 μM, 0.51 μM, 1.7 μM, 5.9 μM and 20 μM) were tested in duplicate within the same microtiter plate. To this end, 100-fold concentrated compound solutions (in DMSO) were previously prepared by serial dilution (1:3.4) of 2 mM stocks in a clear low volume 384-well source microtiter plate (Greiner Bio-One, Frickenhausen, Germany), from which 50 nL of compounds were transferred into a black low volume test microtiter plate from the same supplier. Subsequently, 2 μL of Bub1 (the final concentration of Bub1 was adjusted depending on the activity of the enzyme lot in order to be within the linear dynamic range of the assay: typically 200 ng/mL were used) in aqueous assay buffer [50 mM Tris/HCl pH 7.5, 10 mM magnesium chloride (MgCl2), 200 mM potassium chloride (KCl), 1.0 mM dithiothreitol (DTT), 0.1 mM sodium orthovanadate, 1% (v/v) glycerol, 0.01% (w/v) bovine serum albumine (BSA), 0.005% (v/v) Trition X-100 (Sigma), 1× Complete EDTA-free protease inhibitor mixture (Roche)] were added to the compounds in the test plate and the mixture was incubated for 15 min at 22° C. to allow pre-equilibration of the putative enzyme-inhibitor complexes before the start of the kinase reaction, which was initiated by the addition of 3 μL 1.67-fold concentrated solution (in assay buffer) of adenosine-triphosphate (ATP, 10 μM final concentration) and peptide substrate (1 μM final concentration). […] Subsequently, the amount of product was evaluated by measurement of the resonance energy transfer from the Eu-chelate-antibody complex recognizing the Phosphoserine residue to the streptavidin-XL665 bound to the biotin moiety of the peptide. To this end, the fluorescence emissions at 620 nm and 665 nm after excitation at 330-350 nm were measured in a TR-FRET plate reader, e.g. a Rubystar or Pherastar (both from BMG Labtechnologies, Offenburg, Germany) or a Viewlux (Perkin-Elmer) and the ratio of the emissions (665 nm/622 nm) was taken as indicator for the amount of phosphorylated substrate. […] IC50 values were calculated by fitting the normalized inhibition data to a 4-parameter logistic equation (Minimum, Maximum, IC50, Hill; Y=Max+(Min−Max)/(1+(X/IC50)Hill)).
(TR-FRET usually uses a lanthanide donor and a delayed reading to cut background.)

Assay [2] deals with HeLa human cervical cancer cell line. Briefly: Proliferation assay (HeLa cell line, crystal violet). In kind it is cell-based. Particulars: 96 h, HeLa cells, 4 days incubation, crystal violet staining, median value, read-out: Biological Assay 2: Proliferation assay (HeLa cell line) median IC50. Here is the method: Cultivated tumor cells (cells were ordered from ATCC) were plated at a density of 3000 cells/well in a 96-well multititer plate in 200 μL of growth medium supplemented 10% fetal calf serum. After 24 hours, the cells of one plate (zero-point plate) were stained with crystal violet (see below), while the medium of the other plates was replaced by fresh culture medium (200 μL), to which the test substances were added in various concentrations (0 μM, as well as in the range of 0.001-10 μM; the final concentration of the solvent dimethyl sulfoxide was 0.5%). The cells were incubated for 4 days in the presence of test substances. Cell proliferation was determined by staining the cells with crystal violet: the cells were fixed by adding 20 μL/measuring point of an 11% glutaric aldehyde solution for 15 minutes at room temperature. After three washing cycles of the fixed cells with water, the plates were dried at room temperature. The cells were stained by adding 100 μL/measuring point of a 0.1% crystal violet solution (pH 3.0). […] Absorption was determined by photometry at a wavelength of 595 nm.
The change of cell number, in percent, was calculated by normalization of the measured values to the absorption values of the zero-point plate (=0%) and the absorption of the untreated (0 μm) cells (=100%). The IC50 values were determined by means of a 4 parameter fit.

T1 sequence (O43683 704-1085): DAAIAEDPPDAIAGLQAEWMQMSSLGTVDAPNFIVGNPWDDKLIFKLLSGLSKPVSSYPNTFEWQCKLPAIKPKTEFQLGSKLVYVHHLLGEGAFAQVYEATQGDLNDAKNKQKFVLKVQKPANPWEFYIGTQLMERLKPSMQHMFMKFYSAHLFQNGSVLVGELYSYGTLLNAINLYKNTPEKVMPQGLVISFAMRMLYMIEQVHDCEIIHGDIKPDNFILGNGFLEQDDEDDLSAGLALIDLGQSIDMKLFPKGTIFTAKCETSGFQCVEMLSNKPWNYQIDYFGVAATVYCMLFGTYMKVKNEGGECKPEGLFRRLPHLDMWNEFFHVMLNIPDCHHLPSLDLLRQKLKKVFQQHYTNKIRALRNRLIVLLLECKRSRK

Consider `COc1cnc(-c2nn(Cc3c(Cl)cnn3C)c(C3CC3)c2C)nc1Nc1ccncc1` [Example 2-1-1, 2-{1-[(4-chloro-1-methyl-1H-pyrazol-5-yl)methyl]-5-cyclopropyl-4-methyl-1H-pyrazol-3-yl}-5-methoxy-N-(pyridin-4-yl)pyrimidin-4-amine], for which, in assay [1], the IC50 amounted to 9 nM.

Regarding `COc1cnc(-c2nn(Cc3c(C)noc3C)c(C3CC3)c2C)nc1Nc1ccncc1C(N)=O` [Example 2-2-1, 4-[(2-{5-cyclopropyl-1-[(3,5-dimethyl-1,2-oxazol-4-yl)methyl]-4-methyl-1H-pyrazol-3-yl}-5-methoxypyrimidin-4-yl)amino]nicotinamide], the IC50 is more than 10000 nM in assay [2] and 16 nM in assay [1].

Regarding `CCOC(=O)c1cnccc1Nc1nc(-c2nn(Cc3nnc(C)o3)c(C3CC3)c2C)ncc1OC` [Example 2-4-2, ethyl 4-[(2-{5-cyclopropyl-4-methyl-1-[(5-methyl-1,3,4-oxadiazol-2-yl)methyl]-1H-pyrazol-3-yl}-5-methoxypyrimidin-4-yl)amino]pyridine-3-carboxylate], the IC50 in assay [1] is 2100 nM.

Turning to `COc1cnc(-c2nn(Cc3nnc(C)o3)c(C3CC3)c2C)nc1Nc1ccncc1C(N)=O` [Example 2-5-1, 4-[(2-{5-cyclopropyl-4-methyl-1-[(5-methyl-1,3,4-oxadiazol-2-yl)methyl]-1H-pyrazol-3-yl}-5-methoxypyrimidin-4-yl)amino]pyridine-3-carboxamide], the IC50 in assay [2] is more than 10000 nM; in assay [1], 680 nM.
